The values that follow come from PubChem BioAssay (NCI).

Among the test systems are 786-0 renal; A549 NSCLC; HS 578T breast; HCT-15 colon; COLO 205 colon; SK-MEL-2 melanoma; OVCAR-8 ovarian; HOP-62 NSCLC; T-47D breast; U251 CNS.
What all share (assay): NCI-60 cell line screen, 48 h

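1) Cells in 96-well plates. 2) Compound, 48 h, 5 concentrations. 3) Linear interpolation between surrounding doses. 4) Unreached endpoint = highest concentration. GI50 marks 50% less growth. The concentration for full growth arrest is given as TGI.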

`COC1=CC(c2ccc[nH]2)=N/C1=C\c1[nH]c(C)c(CC(=O)OCc2ccccc2)c1CCC(=O)OCc1ccccc1`: the GI50 with 786-0 renal was 0.376 µM; in the experiment on A549 NSCLC, 0.427 µM; in the experiment with HS 578T breast, 0.395 µM; in the experiment with HCT-15 colon, 0.313 µM; in the experiment with COLO 205 colon, 0.26 µM; with SK-MEL-2 melanoma, 0.281 µM. For the same compound, the GI50 was 0.32 µM with OVCAR-8 ovarian, 0.365 µM in the experiment with HOP-62 NSCLC, 0.256 µM in the experiment with T-47D breast and 0.345 µM with U251 CNS. In addition, the TGI in the experiment with 786-0 renal turned out to be 1.53 µM; in the experiment on A549 NSCLC, 10.9 µM; in the experiment with HS 578T breast, 2.87 µM; with HCT-15 colon it was 1.18 µM; with COLO 205 colon, 1.2 µM; in the experiment with SK-MEL-2 melanoma it was 0.758 µM. For the same compound, the TGI is 1.36 µM with OVCAR-8 ovarian, 2.39 µM in the experiment with HOP-62 NSCLC, 0.922 µM in the experiment on T-47D breast and 1.68 µM in the experiment on U251 CNS.
Regarding `Cc1c(O)c2ccccc2oc1=O`, the TGI with 786-0 renal, in the experiment on A549 NSCLC, with HS 578T breast, in the experiment on HCT-15 colon, in the experiment with COLO 205 colon and in the experiment with SK-MEL-2 melanoma was > 100 µM each time. Further, the TGI with OVCAR-8 ovarian, with HOP-62 NSCLC, in the experiment on T-47D breast and in the experiment with U251 CNS was > 100 µM each time.
For the compound `Nc1cc(F)ccc1CC(=O)O`, the TGI in the experiment with 786-0 renal, with A549 NSCLC, in the experiment with HS 578T breast, in the experiment with HCT-15 colon, in the experiment on COLO 205 colon and with SK-MEL-2 melanoma was > 100 µM in each case. For the same compound, the TGI in the experiment with OVCAR-8 ovarian, in the experiment on HOP-62 NSCLC, in the experiment with T-47D breast and in the experiment on U251 CNS was > 100 µM each time.
As to `Cc1cc(=O)[nH]c(N/N=C/c2cc(Br)ccc2O)n1`, the GI50 in the experiment on 786-0 renal was 2.35 µM; in the experiment with A549 NSCLC it was 1.84 µM; with HS 578T breast, 7.1 µM; in the experiment with HCT-15 colon it was 0.606 µM; in the experiment with COLO 205 colon it was 3.45 µM; with SK-MEL-2 melanoma, 49.3 µM. In addition, the GI50 in the experiment on OVCAR-8 ovarian is 0.369 µM; in the experiment on HOP-62 NSCLC, 1.41 µM; in the experiment with T-47D breast it was 0.437 µM; in the experiment with U251 CNS, 0.808 µM. Also, the TGI in the experiment with 786-0 renal is > 100 µM; in the experiment on A549 NSCLC, > 100 µM; in the experiment with HS 578T breast it was > 100 µM; in the experiment with HCT-15 colon it was > 100 µM; with COLO 205 colon it was 32.5 µM; in the experiment with SK-MEL-2 melanoma it was > 100 µM. In addition, the TGI with OVCAR-8 ovarian is 35.6 µM; with HOP-62 NSCLC, > 100 µM; in the experiment with T-47D breast it was 56.7 µM; in the experiment with U251 CNS, > 100 µM.
Take `C=C(C)[C@@H]1CC[C@]2(COCCC#N)CC[C@]3(C)[C@H](CC[C@@H]4[C@@](C)(CCCNCCC#N)[C@H](C(=C)C)CC[C@]43C)[C@@H]12`: the GI50 with 786-0 renal is 10.6 µM; in the experiment on A549 NSCLC, 34.4 µM; in the experiment on HS 578T breast, 21.1 µM; with HCT-15 colon, 7.66 µM; in the experiment on COLO 205 colon, 14.6 µM; with SK-MEL-2 melanoma it was 10.7 µM. Further, the GI50 is 12.1 µM in the experiment with OVCAR-8 ovarian, 49.7 µM with HOP-62 NSCLC, 8.71 µM with T-47D breast and 13.9 µM with U251 CNS. In addition, the TGI with 786-0 renal was 30.1 µM; in the experiment on A549 NSCLC it was > 50 µM; in the experiment with HS 578T breast, > 50 µM; in the experiment with HCT-15 colon, 16.6 µM; in the experiment with COLO 205 colon it was > 50 µM; in the experiment with SK-MEL-2 melanoma, 25.4 µM. For the same compound, the TGI was 31.8 µM with OVCAR-8 ovarian, > 50 µM in the experiment with HOP-62 NSCLC, > 50 µM in the experiment on T-47D breast and 47.1 µM in the experiment with U251 CNS.
Consider `Nc1c(C(=O)c2ccc(-c3cccnc3)cc2)cnn1-c1ccc(F)cc1`, for which the GI50 is > 18.4 µM in the experiment on 786-0 renal; > 14.4 µM in the experiment with A549 NSCLC; > 25 µM in the experiment on HS 578T breast; > 20.2 µM in the experiment on HCT-15 colon; > 21.9 µM in the experiment with COLO 205 colon; > 25 µM in the experiment on SK-MEL-2 melanoma. Besides, the GI50 in the experiment on OVCAR-8 ovarian was > 17.5 µM; with HOP-62 NSCLC it was > 18.7 µM; in the experiment with T-47D breast, 9.72 µM; in the experiment with U251 CNS, > 15.2 µM. Besides, the TGI in the experiment on 786-0 renal, in the experiment with A549 NSCLC, with HS 578T breast, in the experiment on HCT-15 colon, in the experiment on COLO 205 colon and with SK-MEL-2 melanoma was > 25 µM in each case. Besides, the TGI in the experiment with OVCAR-8 ovarian is > 25 µM; with HOP-62 NSCLC, > 25 µM; with T-47D breast it was > 21.7 µM; with U251 CNS, > 25 µM.
For `COC(=O)[C@@H](C)C[C@H](Cc1cn(C)c2ccccc12)NC(=O)c1csc([C@@H](C[C@H](C(C)C)N(C)C(=O)[C@@H](NC(=O)[C@H]2CCCCN2C)C(C)C)OC(C)=O)n1`, the GI50 in the experiment with 786-0 renal is 0.0545 µM; in the experiment on A549 NSCLC it was 0.0338 µM; in the experiment with HS 578T breast it was 0.0105 µM; in the experiment with HCT-15 colon, 0.0665 µM; in the experiment on COLO 205 colon it was 0.00788 µM; in the experiment with SK-MEL-2 melanoma, 0.0115 µM. The GI50 was 0.0302 µM in the experiment with OVCAR-8 ovarian, 0.0133 µM in the experiment with HOP-62 NSCLC, > 16.7 µM with T-47D breast and 0.0102 µM in the experiment with U251 CNS. The TGI with 786-0 renal was > 13 µM; with A549 NSCLC it was > 16.7 µM; in the experiment on HS 578T breast, 7.58 µM; with HCT-15 colon it was > 16.7 µM; in the experiment with COLO 205 colon, 0.0859 µM; with SK-MEL-2 melanoma, > 16.7 µM. For the same compound, the TGI with OVCAR-8 ovarian, in the experiment with HOP-62 NSCLC, in the experiment on T-47D breast and in the experiment with U251 CNS was > 16.7 µM throughout.
